Measurements from publication PMC3087488 (Journal of Oncology, 2011).

Experiment: phase 1b dose escalation: dose-limiting toxicities and MTD
Conditions: in combination with panitumumab and gemcitabine/cisplatin; patients with advanced solid tumors

For `CC1(C)CNc2cc(NC(=O)c3cccnc3NCc3ccncc3)ccc21` [motesanib], the “maximum tolerated dose (MTD) of motesanib” value was 100 mg QD.
